{"source": "patent US20100234427A1", "about": "(priority 2006, published 2010)", "test_in_all_cases": "biochemical", "key": {"[1]": {"target": "T1, noradrenaline (NA) reuptake in synaptosomes (Rattus norvegicus, UniProt Q63380)", "T1 construct": "in synaptosomes as described in WO 97/16451; from tissue", "T1 sequence (Q63380 1-617)": "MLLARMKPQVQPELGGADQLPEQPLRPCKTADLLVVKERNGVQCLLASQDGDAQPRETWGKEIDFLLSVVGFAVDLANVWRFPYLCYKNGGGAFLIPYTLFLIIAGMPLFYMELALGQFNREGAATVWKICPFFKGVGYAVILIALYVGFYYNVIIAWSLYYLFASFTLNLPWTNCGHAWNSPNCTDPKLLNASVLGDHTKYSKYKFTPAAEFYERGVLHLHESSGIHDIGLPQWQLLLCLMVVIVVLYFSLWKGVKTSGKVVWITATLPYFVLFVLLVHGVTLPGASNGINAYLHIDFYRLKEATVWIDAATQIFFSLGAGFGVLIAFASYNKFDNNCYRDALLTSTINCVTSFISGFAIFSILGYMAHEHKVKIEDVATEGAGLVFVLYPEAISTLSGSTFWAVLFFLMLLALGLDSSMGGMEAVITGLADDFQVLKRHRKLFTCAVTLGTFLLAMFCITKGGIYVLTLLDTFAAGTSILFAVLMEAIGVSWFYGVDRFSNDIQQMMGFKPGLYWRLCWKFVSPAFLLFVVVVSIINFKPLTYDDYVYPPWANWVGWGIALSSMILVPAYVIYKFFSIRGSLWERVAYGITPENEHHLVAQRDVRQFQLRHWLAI"}, "[2]": {"target": "T2, dopamine (DA) reuptake in synaptosomes (Rattus norvegicus, UniProt P23977)", "T2 construct": "in synaptosomes as described in WO 97/16451; from tissue", "T2 sequence (P23977 whole entry)": "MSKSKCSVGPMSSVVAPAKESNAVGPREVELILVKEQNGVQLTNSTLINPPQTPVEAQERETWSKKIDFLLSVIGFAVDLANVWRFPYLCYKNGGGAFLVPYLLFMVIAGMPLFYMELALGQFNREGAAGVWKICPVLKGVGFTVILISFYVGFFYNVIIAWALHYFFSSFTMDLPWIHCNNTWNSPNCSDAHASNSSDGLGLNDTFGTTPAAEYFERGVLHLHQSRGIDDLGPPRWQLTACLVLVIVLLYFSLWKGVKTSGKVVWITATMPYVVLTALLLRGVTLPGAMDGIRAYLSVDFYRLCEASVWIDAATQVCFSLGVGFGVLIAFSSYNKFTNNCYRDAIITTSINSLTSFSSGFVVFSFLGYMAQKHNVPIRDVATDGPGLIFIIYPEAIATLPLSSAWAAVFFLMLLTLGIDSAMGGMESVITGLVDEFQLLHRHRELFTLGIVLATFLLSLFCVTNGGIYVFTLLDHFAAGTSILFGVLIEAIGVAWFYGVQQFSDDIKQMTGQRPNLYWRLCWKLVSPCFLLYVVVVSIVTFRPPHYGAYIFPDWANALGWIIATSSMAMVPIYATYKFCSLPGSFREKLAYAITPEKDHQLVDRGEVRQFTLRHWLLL"}, "[3]": {"target": "T3, serotonine (5-HT) reuptake in synaptosomes (Rattus norvegicus, UniProt P31652)", "T3 construct": "in synaptosomes as described in WO 97/16451; from tissue", "T3 sequence (P31652 whole entry)": "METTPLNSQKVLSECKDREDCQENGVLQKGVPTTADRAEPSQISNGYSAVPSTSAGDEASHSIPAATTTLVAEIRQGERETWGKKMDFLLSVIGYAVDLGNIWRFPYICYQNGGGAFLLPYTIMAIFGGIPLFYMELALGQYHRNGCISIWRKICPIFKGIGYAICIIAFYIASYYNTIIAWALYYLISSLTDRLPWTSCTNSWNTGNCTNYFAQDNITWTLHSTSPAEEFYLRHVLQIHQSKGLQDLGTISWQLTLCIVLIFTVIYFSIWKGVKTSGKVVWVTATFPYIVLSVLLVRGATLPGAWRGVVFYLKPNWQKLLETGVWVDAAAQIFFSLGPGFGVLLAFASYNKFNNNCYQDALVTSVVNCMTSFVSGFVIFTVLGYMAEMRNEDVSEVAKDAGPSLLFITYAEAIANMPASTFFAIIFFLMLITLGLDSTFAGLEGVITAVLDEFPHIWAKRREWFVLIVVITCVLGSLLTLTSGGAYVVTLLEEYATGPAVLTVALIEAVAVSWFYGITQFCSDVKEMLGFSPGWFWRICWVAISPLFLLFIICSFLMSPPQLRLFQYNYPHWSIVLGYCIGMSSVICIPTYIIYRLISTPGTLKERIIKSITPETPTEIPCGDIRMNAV"}}, "note": "Structures can show the parent of a compound that is named as a salt.", "data": [{"compound": "CCC(=O)N(CC1CCN(CCc2ccc(F)cc2)CC1)c1ccccc1", "note": "[Compound 12j, N-{1-[2-(4-Fluoro-phenyl)-ethyl]-piperidin-4-ylmethyl}-N-phenyl-propionamide fumaric acid salt]", "values": [{"measurement": "IC50", "setting": "[1]", "value": 280, "unit": "nM"}, {"measurement": "IC50", "setting": "[2]", "value": 480, "unit": "nM"}, {"measurement": "IC50", "setting": "[3]", "value": 5500, "unit": "nM"}]}]}
